Experiment in all cases: radioligand saturation binding, Sephadex G-25 gel filtration
Assay [1] addresses T1, DORN1 WT (ECD), extracellular domain (Arabidopsis thaliana, UniProt Q9LSR8, DEL116-118).
T1 construct: gene LECRK19; extracellular domain, signal peptide removed, pGEX-5X N-terminal GST fusion, E. coli BL21-AI, glutathione Sepharose; primers encode QETSFVY...APHKKVST
T1 sequence (Q9LSR8 with tags, fused parts or gaps DEL116-118): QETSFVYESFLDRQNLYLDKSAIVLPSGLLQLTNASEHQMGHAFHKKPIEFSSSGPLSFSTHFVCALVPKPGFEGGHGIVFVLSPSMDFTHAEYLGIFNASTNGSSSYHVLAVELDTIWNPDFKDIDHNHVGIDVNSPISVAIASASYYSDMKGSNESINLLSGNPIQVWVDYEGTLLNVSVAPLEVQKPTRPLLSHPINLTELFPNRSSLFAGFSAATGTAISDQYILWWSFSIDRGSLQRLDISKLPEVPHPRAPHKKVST

In assay [2] the target is T2, DORN1 WT (LEC), lectin domain only (Arabidopsis thaliana, UniProt Q9LSR8).
T2 construct: gene LECRK19; L-type lectin domain only, recombinant from E. coli (GST fusion likely)
T2 sequence (Q9LSR8 22-257 limits assumed): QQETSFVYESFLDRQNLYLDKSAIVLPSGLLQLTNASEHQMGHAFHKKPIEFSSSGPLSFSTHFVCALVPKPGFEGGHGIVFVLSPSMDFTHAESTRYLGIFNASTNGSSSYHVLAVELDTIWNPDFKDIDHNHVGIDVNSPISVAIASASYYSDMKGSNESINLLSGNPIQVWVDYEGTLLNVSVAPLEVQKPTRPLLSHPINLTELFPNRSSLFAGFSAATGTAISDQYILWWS
The conditions noted are these: [γ-32P]ATP labelled compound; 10 mM HEPES pH 7.5, 5 mM MgCl2, on ice 30 min. The source says: radioligand saturation binding, Sephadex G-25 gel filtration on DORN1 WT (LEC), lectin domain only | WT (LEC): lectin domain only, WT (ECD): extracellular domain

In assay [3] the target is T3, DORN1 WT (ECD), extracellular domain (Arabidopsis thaliana, UniProt Q9LSR8, DEL141-146).
T3 construct: gene LECRK19; extracellular domain, signal peptide removed, pGEX-5X N-terminal GST fusion, E. coli BL21-AI, glutathione Sepharose; primers encode QETSFVY...APHKKVST
T3 sequence (Q9LSR8 with tags, fused parts or gaps DEL141-146): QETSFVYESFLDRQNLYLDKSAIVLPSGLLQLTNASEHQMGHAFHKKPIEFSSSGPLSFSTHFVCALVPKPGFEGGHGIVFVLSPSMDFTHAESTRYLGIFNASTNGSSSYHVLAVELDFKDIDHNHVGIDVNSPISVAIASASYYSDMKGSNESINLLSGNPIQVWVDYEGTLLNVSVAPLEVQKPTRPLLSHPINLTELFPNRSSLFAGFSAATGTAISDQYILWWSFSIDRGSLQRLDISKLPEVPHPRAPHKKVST

Assay [4] deals with T4, DORN1 WT (ECD), extracellular domain (Arabidopsis thaliana, UniProt Q9LSR8).
T4 construct: gene LECRK19; extracellular domain, signal peptide removed, pGEX-5X N-terminal GST fusion, E. coli BL21-AI, glutathione Sepharose; primers encode QETSFVY...APHKKVST
T4 sequence (Q9LSR8 23-288): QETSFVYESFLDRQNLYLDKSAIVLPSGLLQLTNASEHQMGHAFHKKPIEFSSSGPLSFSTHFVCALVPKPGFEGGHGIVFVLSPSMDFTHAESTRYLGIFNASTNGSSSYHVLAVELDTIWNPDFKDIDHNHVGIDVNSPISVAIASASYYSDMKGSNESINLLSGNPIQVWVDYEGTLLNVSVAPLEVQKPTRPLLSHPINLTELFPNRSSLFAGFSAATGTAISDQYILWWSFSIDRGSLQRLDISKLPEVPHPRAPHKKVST

As to `Nc1ncnc2c1ncn2[C@@H]1O[C@H](COP(=O)(O)OP(=O)(O)OP(=O)(O)O)[C@@H](O)[C@H]1O` [ATP], the dissociation constant Kd – broadly, the concentration at which binding is half-saturated – was found to be 534 nM in assay [1], 52.6 nM in assay [2], 190 nM in assay [3] and 38.3 nM in assay [4].

Values taken from publication PMC5008829, “Computational Analysis of the Ligand Binding Site of the Extracellular ATP Receptor, DORN1” (PLoS ONE, 2016).
